Laboratory results reported in EP0645451A1, “Heparin binding site structural analogues of fibroblast growth factors” (AMERICAN CYANAMID COMPANY, priority 1993, dated 1995).

Assays:
Assay in all cases: Fluorescence quenching titration, thermodynamic dissociation constant (KD)
FGF-1 (acidic FGF) = FGF-1 (acidic FGF) (Homo sapiens, UniProt P05230); details: tryptophan fluorescence quenching, 10 mM Tris-HCl, pH 7.4, 2 mM dithiothreitol, fitted with n binding sites per ligand, read-out: KD BCDS
Procedure: (§1) FGF-2 contains a single tryptophan residue at position 123. […] Therefore, the fluorescence properties of FGF-2 and FGF-2 mutants in the presence and absence of heparin and a heparin mimic, β-cyclodextran tetradecasulfate (BCDS) are evaluated in this example.
(§2) Fluorescence titration measurements are conducted in a Perkin-Elmer LS-5 fluorospectrometer using excitation and emission wavelengths of 290 nm and 350 nm, respectively. Two milliliters of FGF solution in 10 mM Tris-HCl, pH 7.4, containing 2 mM of dithiothreitol are placed in a cuvette. […] Concentrations of FGF-2 and gln^128,138FGF-2 are 370 nM and 280 nM, respectively. […] An equivalent tryptophan residue, Trp122, exists in acidic FGF (FGF-1), for which similar fluorescence quenching is obtained.
The thermodynamic dissociation constant (KD) is obtained from plots of fluorescence intensity versus ligand concentration. The fluorescence intensity data are fitted by non-linear regression by using equation 1 below, where FO is observed fluorescence intensity, FI is initial intensity, Δ F is the difference between final and the initial fluorescence intensities, Ct is the total FGF protein concentration, KD is the thermodynamic dissociation constant, and Lt is the total heparin concentration. […] However, in the fluorescence titration experiments the titration curves shown in Figure 1 cannot be fitted directly using equation 1. […]

[1] = target: T1, human FGF-2 mutant gln^128,138FGF-2 (lysine-128 and lysine-138 replaced by glutamine) (Homo sapiens, UniProt P09038, A136E/K261Q/K271Q/S138E); format: binding; details: tryptophan fluorescence quenching, 10 mM Tris-HCl, pH 7.4, 2 mM dithiothreitol, read-out: KD BCDS
T1 construct: a synthetic gene encoding the 155 amino acid form of human FGF-2; made in house; host or cells: E. coli BL21 plys S
T1 sequence (P09038 134-288 A136E/S138E/K261Q/K271Q): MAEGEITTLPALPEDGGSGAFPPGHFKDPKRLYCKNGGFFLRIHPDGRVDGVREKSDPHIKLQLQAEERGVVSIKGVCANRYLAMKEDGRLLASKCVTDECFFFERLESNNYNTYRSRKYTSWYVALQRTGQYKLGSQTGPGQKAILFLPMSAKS
Procedure: as §1, §2
(§3) The thermodynamic dissociation constant (KD) is obtained from plots of fluorescence intensity versus ligand concentration. The fluorescence intensity data are fitted by non-linear regression by using equation 1 below, where FO is observed fluorescence intensity, FI is initial intensity, Δ F is the difference between final and the initial fluorescence intensities, Ct is the total FGF protein concentration, KD is the thermodynamic dissociation constant, and Lt is the total heparin concentration. It is assumed in equation 1 that the stoichiometry of FGF and heparin in the complex is 1:1. A graphic software Kaleidagraph is used for handling data. [formula] However, in the fluorescence titration experiments the titration curves shown in Figure 1 cannot be fitted directly using equation 1. […] Since the heparin preparation used here is composed of an average of 20 sulfated monosaccharide units per chain, it is likely that more than one FGF molecule is bound per oligosaccharide chain. […] Moreover, it is reasonable to assume that, in the absence of any data to indicate otherwise, the binding sites on heparin are independent and the binding affinities are similar. […] Under this assumption, the effective concentration of the ligand needs to be adjusted by the multiplication of the actual concentrations by the number of possible binding sites. If n is the average number of FGF molecules bound per oligosaccharide, then equation 1 can be modified to give [formula] in which the effective concentration of the ligand is increased by n times.
(§4) Equation 2 is used to fit the data shown in Figure 1 and the values of the two variables, KD and n, are determined by non-linear regression of at least three titration curves for each molecule. An average of four (n = 4) FGF-2 molecules interacting with heparin is obtained. Four binding sites on each heparin molecule are assumed for mutant gln^128,138FGF-2. Since the molecular weight of heparin used in the experiments is about 5000, which has an average of 20 monosaccharide units, about 4 to 6 monosaccharide units may interact with each FGF molecule. Two to four FGF molecules can bind to one BCDS (which has a calculated molecular weight of 2226). This estimate is in good agreement with that reported by Mach, et al. (Biochemistry 32: 5480-5489 (1993)) of a stoichiometry of 1:4-6 determined by a variety of different approaches including light scattering and analytical ultracentrifugation analyses.
(§5) Table I presents the thermodynamic dissociation constants obtained from fluorescence quenching experiments for the wild-type FGF and the mutants using heparin or BCDS.

[2] = target: T2, human FGF-2 mutant gln^129,134FGF-2 (arginine-129 and lysine-134 replaced by glutamine) (Homo sapiens, UniProt P09038, A136E/K267Q/R262Q/S138E); format: binding; details: tryptophan fluorescence quenching, 10 mM Tris-HCl, pH 7.4, 2 mM dithiothreitol, read-out: KD BCDS
T2 construct: a synthetic gene encoding the 155 amino acid form of human FGF-2; made in house; host or cells: E. coli BL21 plys S
T2 sequence (P09038 134-288 A136E/S138E/R262Q/K267Q): as the sequence (P09038 134-288 A136E/S138E/K261Q/K271Q) above, with Q128K, R129Q, K134Q, Q138K counted along it
Procedure: as §1, §2, §3, §4, §5

[3] = target: T3, human FGF-2 mutant gln¹²⁸FGF-2 (lysine-128 replaced by glutamine) (Homo sapiens, UniProt P09038, A136E/K261Q/S138E); format: binding; details: tryptophan fluorescence quenching, 10 mM Tris-HCl, pH 7.4, 2 mM dithiothreitol, read-out: KD BCDS
T3 construct: a synthetic gene encoding the 155 amino acid form of human FGF-2; made in house; host or cells: E. coli BL21 plys S
T3 sequence (P09038 134-288 A136E/S138E/K261Q): as the sequence (P09038 134-288 A136E/S138E/K261Q/K271Q) above, with Q138K counted along it
Procedure: as §1, §2, §3, §4, §5

[4] = target: T4, human FGF-2 mutant gln¹²⁹FGF-2 (arginine-129 replaced by glutamine) (Homo sapiens, UniProt P09038, A136E/R262Q/S138E); format: binding; details: tryptophan fluorescence quenching, 10 mM Tris-HCl, pH 7.4, 2 mM dithiothreitol, read-out: KD BCDS
T4 construct: a synthetic gene encoding the 155 amino acid form of human FGF-2; made in house; host or cells: E. coli BL21 plys S
T4 sequence (P09038 134-288 A136E/S138E/R262Q): as the sequence (P09038 134-288 A136E/S138E/K261Q/K271Q) above, with Q128K, R129Q, Q138K counted along it
Procedure: as §1, §2, §3, §4, §5

[5] = target: T5, human FGF-2 mutant gln¹³⁴FGF-2 (lysine-134 replaced by glutamine) (Homo sapiens, UniProt P09038, A136E/K267Q/S138E); format: binding; details: tryptophan fluorescence quenching, 10 mM Tris-HCl, pH 7.4, 2 mM dithiothreitol, read-out: KD BCDS
T5 construct: a synthetic gene encoding the 155 amino acid form of human FGF-2; made in house; host or cells: E. coli BL21 plys S
T5 sequence (P09038 134-288 A136E/S138E/K267Q): as the sequence (P09038 134-288 A136E/S138E/K261Q/K271Q) above, with Q128K, K134Q, Q138K counted along it
Procedure: as §1, §2, §3, §4, §5

[6] = target: T6, human FGF-2 mutant gln¹³⁸FGF-2 (lysine-138 replaced by glutamine) (Homo sapiens, UniProt P09038, A136E/K271Q/S138E); format: binding; details: tryptophan fluorescence quenching, 10 mM Tris-HCl, pH 7.4, 2 mM dithiothreitol, read-out: KD BCDS
T6 construct: a synthetic gene encoding the 155 amino acid form of human FGF-2; made in house; host or cells: E. coli BL21 plys S
T6 sequence (P09038 134-288 A136E/S138E/K271Q): as the sequence (P09038 134-288 A136E/S138E/K261Q/K271Q) above, with Q128K counted along it
Procedure: as §1, §2, §3, §4, §5

[7] = target: T7, human FGF-2, wild-type (recombinant glu^3,5FGF-2) (Homo sapiens, UniProt P09038, A136E/S138E); format: binding; details: wild-type FGF-2; tryptophan fluorescence quenching, 10 mM Tris-HCl, pH 7.4, 2 mM dithiothreitol; read-out: KD BCDS
T7 construct: a synthetic gene encoding the 155 amino acid form of human FGF-2; made in house; host or cells: E. coli BL21 plys S (stated for the mutants; inferred for the wild type)
T7 sequence (P09038 134-288 A136E/S138E): as the sequence (P09038 134-288 A136E/S138E/K261Q/K271Q) above, with Q128K, Q138K counted along it
Procedure: as §1, §2, §3, §4, §5

Chain of FGF-1 (acidic FGF) (P05230 whole entry, species assumed): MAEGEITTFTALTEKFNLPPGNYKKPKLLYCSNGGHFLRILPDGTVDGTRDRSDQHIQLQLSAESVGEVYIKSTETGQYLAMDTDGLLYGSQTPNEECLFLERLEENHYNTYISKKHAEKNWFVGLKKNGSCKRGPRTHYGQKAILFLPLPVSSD

Kd (FGF-1 (acidic FGF)): 4 ± 2 nM | Kd [1]: 2700 ± 600 nM | Kd [2]: 130 ± 27 nM | Kd [3]: 178 ± 44 nM | Kd [4]: 3 ± 1 nM | Kd [5]: 12 ± 0.1 nM | Kd [6]: 228 ± 23 nM | Kd [7]: 14 ± 7 nM
Substance: β-cyclodextran tetradecasulfate [BCDS]
